“And” between values parts separate entries of the source, which are not always exact repeats. Equal values may be shown once.
Legend:
[1] = tested on: GBS wild type strain COH1; test: GBS survival with porphyrin supplementation, with or without pulsed 450 nm light (Study 1, no incubation); format: cell-based, Group B Streptococcus (GBS)
Description: GBS wild type strain COH1 was added to 3 mL of Todd Hewitt broth and grown aerobically overnight at 37° C. From the overnight cultures, 500 uL of GBS was added to fresh Todd Hewitt broth and grown logarithmically at 37° C. until reaching a concentration of 10^8 CFU/mL. The culture was then centrifuged at 1300 rpm for three minutes, the supernatant was removed and discarded, and 1 mL of fresh Todd Hewitt broth was added. Serial dilutions of NaCl were made to obtain a suspension of GBS diluted to a concentration of 1×10^4 CFU/mL. The GBS were streaked onto Todd Hewitt agar plates both with and without the addition of diluted porphyrins (different concentrations of PPIX or CP III).
(§1) The lighted substrate was set to operate in 33% DF pulsed mode and driven with a constant current source. The average irradiance was 3 mW/cm^2. The pulse duration was 10 microseconds with an off time of 20 microseconds, and a pulse repetition rate of 33 kHz. The plates subject to light treatment were irradiated three times at […] with a radiant exposure of 7.56 J/cm^2 during each irradiation session (i.e., each irradiation session was 42 minutes with an incubation period there between of 30 minutes).
(§2) After irradiation protocols were completed, the plates were placed upside down in the anaerobic chamber and incubated at 37° C. for 24 hours. The plates were photographed, colonies counted and statistics of percent survival recorded.

[2] = tested on: GBS wild type strain COH1; test: GBS survival with porphyrin supplementation and 30 min incubation (optional wash), with or without pulsed 450 nm light (Study 2); format: cell-based, Group B Streptococcus (GBS)
Description: GBS wild type strain COH1 was added to 3 mL of Todd Hewitt broth and grown aerobically overnight at 37° C. From the overnight cultures, 500 uL of GBS was added to fresh Todd Hewitt broth and grown logarithmically at 37° C. until reaching a concentration of 10^8 CFU/mL. The culture was then centrifuged at 1300 rpm for three minutes, the supernatant was removed and discarded, and 1 mL of fresh Todd Hewitt broth was added.
The culture was then split into three Eppendorf tubes—a first tube for GBS and second and third tubes for GBS with diluted porphyrins used for incubation. Diluted porphyrins (PPIX or CP III) were added into the second and third tubes and incubated for 30 minutes at 37° C. The third tube was then washed three times with phosphate-buffered saline (PBS) and centrifuged at 1300 rpm for three minutes, and the supernatant was removed and discarded. Serial dilutions of NaCl were made to obtain a suspension of GBS diluted to a concentration of 1×10^4 CFU/mL. The GBS were streaked onto Todd Hewitt agar plates.
as §1, with “therebetween” for “there between”
as §2

[3] = 0.05 mg/mL porphyrin + pulsed 450 nm light, 7.56 J/cm^2, 3 mW/cm^2, 33% DF, three irradiations
[4] = 0.2 mg/mL (incubated) + pulsed 450 nm light 7.56 J/cm^2, three irradiations
[5] = 0.2 mg/mL (incubated), without any irradiation

Compound	percent GBS survival compared to the control ([1]; 0.02 mg/mL porphyrin, without any irradiation)	percent GBS survival compared to the control [1, 3]	percent GBS survival compared to the control ([1]; 0.05 mg/mL porphyrin, without any irradiation)	percent GBS survival compared to the control ([2]; 0.05 mg/mL (incubated and washed) + pulsed 450 nm light 7.56 J/cm^2, three irradiations) [%]	percent GBS survival compared to the control ([2]; 0.05 mg/mL (incubated and washed), no irradiation)	percent GBS survival compared to the control ([2]; 0.05 mg/mL (incubated) + pulsed 450 nm light 7.56 J/cm^2, three irradiations) [%]	percent GBS survival compared to the control ([2]; 0.05 mg/mL (incubated), without any irradiation)	percent GBS survival compared to the control [2, 4]	percent GBS survival compared to the control [2, 5]	percent GBS survival compared to the control ([1]; 0.02 mg/mL porphyrin + pulsed 450 nm light, 7.56 J/cm^2, 3 mW/cm^2, 33% DF, three irradiations) [%]	percent GBS survival compared to the control ([2]; 0.02 mg/mL (incubated and washed) + pulsed 450 nm light 7.56 J/cm^2, three irradiations)	percent GBS survival compared to the control ([2]; 0.02 mg/mL (incubated and washed), no irradiation)	percent GBS survival compared to the control ([2]; 0.02 mg/mL (incubated) + pulsed 450 nm light 7.56 J/cm^2, three irradiations)	percent GBS survival compared to the control ([2]; 0.02 mg/mL (incubated), without any irradiation)	percent GBS survival compared to the control ([2]; 0.08 mg/mL (incubated and washed) + pulsed 450 nm light 7.56 J/cm^2, three irradiations)	percent GBS survival compared to the control ([2]; 0.08 mg/mL (incubated and washed), no irradiation)	percent GBS survival compared to the control ([2]; 0.08 mg/mL (incubated) + pulsed 450 nm light 7.56 J/cm^2, three irradiations)	percent GBS survival compared to the control ([2]; 0.08 mg/mL (incubated), without any irradiation)	percent GBS survival compared to the control ([2]; 0.2 mg/mL (incubated and washed) + pulsed 450 nm light 7.56 J/cm^2, three irradiations)	percent GBS survival compared to the control ([2]; 0.2 mg/mL (incubated and washed), no irradiation)
coproporphyrin III [CP III]	approximately 74%	0%	approximately 84%	0	approximately 72%	0	approximately 90%	0%	approximately 82%	–	–	–	–	–	–	–	–	–	–	–
C=CC1=C(C)c2cc3[nH]c(cc4nc(cc5[nH]c(cc1n2)c(C)c5CCC(=O)O)C(CCC(=O)O)=C4C)c(C)c3C=C [PPIX, protoporphyrin IX]	–	3% and 0%	–	–	–	–	–	approximately 50%	approximately 80%	0	approximately 18%	approximately 92%	approximately 68%	approximately 92%	approximately 40%	approximately 76%	approximately 52%	approximately 84%	approximately 10%	approximately 78%

Reference: US20220193445A1, “PHOTOERADICATION OF MICROORGANISMS WITH PULSED PURPLE OR BLUE LIGHT” (SAN DIEGO STATE UNIVERSITY RESEARCH FOUNDATION, priority 2016, published 2022)
